Values joined by “and” are separate entries in the source; they are usually repeats but may differ in a detail not shown here. Equal values may be shown once.
molecular target: T1, SARS-CoV-2 Spike A (wild-type) (Severe acute respiratory syndrome coronavirus 2, UniProt P0DTC2); experiment: MSD ACE2 competition assay (inhibition of Spike binding with ACE2, ECL), A (wild-type); conditions: IC50 Wild Type, Wild Type Spike
T1 construct: purchased Meso Scale Diagnostics, LLC V-PLEX SARS-CoV-2 Panel 13 (ACE2) Kit / Panel 23 (ACE2) Kit

| SMILES | IC50 [nM] |
| --- | --- |
| CC[C@H](C)[C@H](NC(C)=O)C(=O)N[C@@H](CC(C)C)C(=O)N[C@@H](CCC(N)=O)C(=O)N[C@@H](CCCCN)C(=O)N[C@H](C(=O)N[C@@H](Cc1ccc(O)cc1)C(=O)N[C@@H](CCC(=O)O)C(=O)N[C@H](C(=O)N[C@@H](CCSC)C(=O)N[C@@H](CCCNC(=N)N)C(=O)N[C@@H](CC(C)C)C(=O)N[C@@H](CC(C)C)C(=O)N[C@@H](CC(=O)O)C(=O)N[C@@H](CCC(=O)O)C(=O)N[C@@H](CC(C)C)C(=O)NCC(=O)N[C@@H](Cc1c[nH]cn1)C(=O)N[C@@H](C)C(=O)N[C@@H](CCC(=O)O)C(=O)N[C@@H](C)C(=O)N[C@@H](CO)C(=O)N[C@@H](CCSC)C(=O)N[C@@H](CCCNC(=N)N)C(=O)N[C@H](C(=O)N[C@@H](CO)C(=O)N[C@@H](CC(=O)O)C(=O)N[C@@H](CC(C)C)C(=O)N[C@H](C(=O)N[C@@H](Cc1ccc(O)cc1)C(=O)N[C@@H](CCC(=O)O)C(=O)N[C@@H](Cc1ccccc1)C(=O)N[C@@H](CCSC)C(=O)N[C@@H](CCCCN)C(=O)N[C@@H](CCCCN)C(=O)NCC(=O)NCCOCCOCCOCCOCCOCCOCCOCCOCCC(=O)NCCOCCOCCOCCOCCOCCOCCOCCOCCC(=O)N[C@@H](CC(=O)O)C(=O)N[C@H]1CSSC[C@@H](C(=O)N[C@H](C(N)=O)[C@@H](C)O)NC(=O)[C@H](Cc2c[nH]c3ccccc23)NC(=O)[C@H](C(C)C)NC(=O)[C@H](CC(C)C)NC(=O)[C@H](CCC(=O)O)NC(=O)CNC(=O)[C@H](CC(C)C)NC(=O)[C@H](Cc2c[nH]cn2)NC(=O)[C@H](Cc2c[nH]c3ccccc23)NC(=O)[C@H](C)NC1=O)[C@@H](C)CC)C(C)C)[C@@H](C)CC)[C@@H](C)CC [Compound 155] | 7.67 |

molecular target: SARS-CoV-2 Spike protein (Severe acute respiratory syndrome coronavirus 2, UniProt P0DTC2); experiment: Ternary binding of SARS-CoV-2 Spike protein (293T cells expressing Spike-GFP, IgG-AF647, flow cytometry); assay type: cell-based; conditions: 293T cells expressing Spike-GFP; IgG-AF647 10 μg/ml; repeat values/batches listed separately; read-out: SARS-CoV-2 Ternary binding EC50
Protocol: 293T cells stably expressing SARS-CoV-2 Spike-GFP protein on their surface were incubated with a concentration range of compound for 30 minutes at 37° C.-5% CO2 in Roswell Park Memorial Institute Medium (RPMI)-5% low IgG serum with 10 μg/ml IgG-Alexa Fluor® 647 (AF647). The cells were washed twice using the same medium, resuspended in phosphate-buffered saline (PBS)-1% bovine serum albumin (BSA), and acquired on Attune™ NxT Flow Cytometer. In some embodiments, mean fluorescence intensity of AF647 as well as […] AF647 positive in GFP positive gate are reported as readouts in this assay.

| SMILES | EC50 |
| --- | --- |
| CC[C@H](C)[C@H](NC(=O)[C@H](Cc1c[nH]c2ccccc12)NC(=O)[C@H](CCC(=O)O)NC(=O)[C@H](CCCCN)NC(=O)[C@H](CC(=O)O)NC(C)=O)C(=O)N[C@@H](CC(C)C)C(=O)N[C@@H](CCC(N)=O)C(=O)N[C@@H](CCCCN)C(=O)N[C@H](C(=O)N[C@@H](Cc1ccc(O)cc1)C(=O)N[C@@H](CCC(=O)O)C(=O)N[C@H](C(=O)N[C@@H](CCSC)C(=O)N[C@@H](CCCNC(=N)N)C(=O)N[C@@H](CC(C)C)C(=O)N[C@@H](CC(C)C)C(=O)N[C@@H](CC(=O)O)C(=O)N[C@@H](CCC(=O)O)C(=O)N[C@@H](CC(C)C)C(=O)NCC(=O)N[C@@H](Cc1c[nH]cn1)C(=O)N[C@@H](C)C(=O)N[C@@H](CCC(=O)O)C(=O)N[C@@H](C)C(=O)N[C@@H](CO)C(=O)NCCOCCOCCOCCOCCOCCOCCOCCOCCC(=O)NCCOCCOCCOCCOCCOCCOCCOCCOCCC(=O)N[C@@H](CC(=O)O)C(=O)N[C@H]1CSSC[C@@H](C(=O)N[C@H](C(N)=O)[C@@H](C)O)NC(=O)[C@H](Cc2c[nH]c3ccccc23)NC(=O)[C@H](C(C)C)NC(=O)[C@H](CC(C)C)NC(=O)[C@H](CCC(=O)O)NC(=O)CNC(=O)[C@H](CC(C)C)NC(=O)[C@H](Cc2c[nH]cn2)NC(=O)[C@H](Cc2c[nH]c3ccccc23)NC(=O)[C@H](C)NC1=O)[C@@H](C)CC)[C@@H](C)CC [Compound 152] | > 100 nM |
| CC[C@H](C)[C@H](NC(=O)[C@H](Cc1c[nH]c2ccccc12)NC(=O)[C@H](CCC(=O)O)NC(=O)[C@H](CCCCN)NC(=O)[C@H](CC(=O)O)NC(C)=O)C(=O)N[C@@H](CC(C)C)C(=O)N[C@@H](CCC(N)=O)C(=O)N[C@@H](CCCCN)C(=O)N[C@H](C(=O)N[C@@H](Cc1ccc(O)cc1)C(=O)N[C@@H](CCC(=O)O)C(=O)N[C@H](C(=O)N[C@@H](CCSC)C(=O)N[C@@H](CCCNC(=N)N)C(=O)N[C@@H](CC(C)C)C(=O)N[C@@H](CC(C)C)C(=O)N[C@@H](CC(=O)O)C(=O)N[C@@H](CCC(=O)O)C(=O)N[C@@H](CC(C)C)C(=O)NCC(=O)NCCOCCOCCOCCOCCOCCOCCOCCOCCC(=O)NCCOCCOCCOCCOCCOCCOCCOCCOCCC(=O)N[C@@H](CC(=O)O)C(=O)N[C@H]1CSSC[C@@H](C(=O)N[C@H](C(N)=O)[C@@H](C)O)NC(=O)[C@H](Cc2c[nH]c3ccccc23)NC(=O)[C@H](C(C)C)NC(=O)[C@H](CC(C)C)NC(=O)[C@H](CCC(=O)O)NC(=O)CNC(=O)[C@H](CC(C)C)NC(=O)[C@H](Cc2c[nH]cn2)NC(=O)[C@H](Cc2c[nH]c3ccccc23)NC(=O)[C@H](C)NC1=O)[C@@H](C)CC)[C@@H](C)CC [Compound 151] | > 10 nM |
| CC[C@H](C)[C@H](NC(=O)[C@H](CC(C)C)NC(=O)[C@H](CC(=O)O)NC(=O)[C@H](CO)NC(=O)[C@@H](NC(=O)[C@H](CCCNC(=N)N)NC(=O)[C@H](CCSC)NC(=O)[C@H](CO)NC(=O)[C@H](C)NC(=O)[C@H](CCC(=O)O)NC(=O)[C@H](C)NC(=O)[C@H](Cc1c[nH]cn1)NC(=O)CNC(=O)[C@H](CC(C)C)NC(=O)[C@H](CCC(=O)O)NC(=O)[C@H](CC(=O)O)NC(=O)[C@H](CC(C)C)NC(=O)[C@H](CC(C)C)NC(=O)[C@H](CCCNC(=N)N)NC(=O)[C@H](CCSC)NC(=O)[C@@H](NC(=O)[C@H](CCC(=O)O)NC(=O)[C@H](Cc1ccc(O)cc1)NC(=O)[C@@H](NC(=O)[C@H](CCCCN)NC(=O)[C@H](CCC(N)=O)NC(=O)[C@H](CC(C)C)NC(=O)[C@@H](NC(=O)[C@H](Cc1c[nH]c2ccccc12)NC(=O)[C@H](CCC(=O)O)NC(=O)[C@H](CCCCN)NC(=O)[C@H](CC(=O)O)NC(C)=O)[C@@H](C)CC)[C@@H](C)CC)[C@@H](C)CC)C(C)C)C(=O)N[C@@H](Cc1ccc(O)cc1)C(=O)N[C@@H](CCC(=O)O)C(=O)N[C@@H](Cc1ccccc1)C(=O)N[C@@H](CCSC)C(=O)N[C@@H](CCCCN)C(=O)N[C@@H](CCCCN)C(=O)NCC(=O)NCCOCCOCCOCCOCCOCCOCCOCCOCCNC(=O)[C@@H]1CSCC(=O)N[C@@H](C)C(=O)N[C@@H](CO)C(=O)N[C@@H](Cc2ccc(O)cc2)C(=O)N[C@@H](Cc2c[nH]cn2)C(=O)N[C@@H](CC(C)C)C(=O)NCC(=O)N[C@@H](CCC(=O)O)C(=O)N[C@@H](CC(C)C)C(=O)N[C@@H](C(C)C)C(=O)N[C@@H](Cc2c[nH]c3ccccc23)C(=O)N2Cc3ccccc3C[C@H]2C(=O)NC(C)(C)C(=O)N1 [Compound 161] | 2.2 nM |
| CC[C@H](C)[C@H](NC(=O)[C@H](CC(C)C)NC(=O)[C@H](CC(=O)O)NC(=O)[C@H](CO)NC(=O)[C@@H](NC(=O)[C@H](CCCNC(=N)N)NC(=O)[C@H](CCSC)NC(=O)[C@H](CO)NC(=O)[C@H](C)NC(=O)[C@H](CCC(=O)O)NC(=O)[C@H](C)NC(=O)[C@H](Cc1c[nH]cn1)NC(=O)CNC(=O)[C@H](CC(C)C)NC(=O)[C@H](CCC(=O)O)NC(=O)[C@H](CC(=O)O)NC(=O)[C@H](CC(C)C)NC(=O)[C@H](CC(C)C)NC(=O)[C@H](CCCNC(=N)N)NC(=O)[C@H](CCSC)NC(=O)[C@@H](NC(=O)[C@H](CCC(=O)O)NC(=O)[C@H](Cc1ccc(O)cc1)NC(=O)[C@@H](NC(=O)[C@H](CCCCN)NC(=O)[C@H](CCC(N)=O)NC(=O)[C@H](CC(C)C)NC(=O)[C@@H](NC(=O)[C@H](Cc1c[nH]c2ccccc12)NC(=O)[C@H](CCC(=O)O)NC(=O)[C@H](CCCCN)NC(=O)[C@H](CC(=O)O)NC(C)=O)[C@@H](C)CC)[C@@H](C)CC)[C@@H](C)CC)C(C)C)C(=O)N[C@@H](Cc1ccc(O)cc1)C(=O)N[C@@H](CCC(=O)O)C(=O)N[C@@H](Cc1ccccc1)C(=O)N[C@@H](CCSC)C(=O)N[C@@H](CCCCN)C(=O)N[C@@H](CCCCN)C(=O)NCC(=O)NCCOCCOCCOCCOCCOCCOCCOCCOCCC(=O)NCCOCCOCCOCCOCCOCCOCCOCCOCCNC(=O)[C@@H]1CSCC(=O)N[C@@H](C)C(=O)N[C@@H](CO)C(=O)N[C@@H](Cc2ccc(O)cc2)C(=O)N[C@@H](Cc2c[nH]cn2)C(=O)N[C@@H](CC(C)C)C(=O)NCC(=O)N[C@@H](CCC(=O)O)C(=O)N[C@@H](CC(C)C)C(=O)N[C@@H](C(C)C)C(=O)N[C@@H](Cc2c[nH]c3ccccc23)C(=O)N2Cc3ccccc3C[C@H]2C(=O)NC(C)(C)C(=O)N1 [Compound 160] | 1.4 nM and 2.2 nM |
| CC[C@H](C)[C@H](NC(=O)[C@H](CC(C)C)NC(=O)[C@H](CC(=O)O)NC(=O)[C@H](CO)NC(=O)[C@@H](NC(=O)[C@H](CCCNC(=N)N)NC(=O)[C@H](CCSC)NC(=O)[C@H](CO)NC(=O)[C@H](C)NC(=O)[C@H](CCC(=O)O)NC(=O)[C@H](C)NC(=O)[C@H](Cc1c[nH]cn1)NC(=O)CNC(=O)[C@H](CC(C)C)NC(=O)[C@H](CCC(=O)O)NC(=O)[C@H](CC(=O)O)NC(=O)[C@H](CC(C)C)NC(=O)[C@H](CC(C)C)NC(=O)[C@H](CCCNC(=N)N)NC(=O)[C@H](CCSC)NC(=O)[C@@H](NC(=O)[C@H](CCC(=O)O)NC(=O)[C@H](Cc1ccc(O)cc1)NC(=O)[C@@H](NC(=O)[C@H](CCCCN)NC(=O)[C@H](CCC(N)=O)NC(=O)[C@H](CC(C)C)NC(=O)[C@@H](NC(=O)[C@H](Cc1c[nH]c2ccccc12)NC(=O)[C@H](CCC(=O)O)NC(=O)[C@H](CCCCN)NC(=O)[C@H](CC(=O)O)NC(C)=O)[C@@H](C)CC)[C@@H](C)CC)[C@@H](C)CC)C(C)C)C(=O)N[C@@H](Cc1ccc(O)cc1)C(=O)N[C@@H](CCC(=O)O)C(=O)NCCOCCOCCOCCOCCOCCOCCOCCOCCC(=O)NCCOCCOCCOCCOCCOCCOCCOCCOCCC(=O)N[C@@H](CC(=O)O)C(=O)N[C@H]1CSSC[C@@H](C(=O)N[C@H](C(N)=O)[C@@H](C)O)NC(=O)[C@H](Cc2c[nH]c3ccccc23)NC(=O)[C@H](C(C)C)NC(=O)[C@H](CC(C)C)NC(=O)[C@H](CCC(=O)O)NC(=O)CNC(=O)[C@H](CC(C)C)NC(=O)[C@H](Cc2c[nH]cn2)NC(=O)[C@H](Cc2c[nH]c3ccccc23)NC(=O)[C@H](C)NC1=O [Compound 154] | > 100 nM |
